Results reported in patent publication US8367366B2, “Methods and kits for quantitative methyltransferase and demethylase measurements” (The Board of Trustees of the University of Arkansas, priority 2010, dated 2013).

Target: LSD1 (Homo sapiens, UniProt O60341)
Experiment: biochemical
Conditions: read-out: inhibits LSD1 activity
Protocol: MassSQUIRM Lysine residues were chemically dimethylated using a reductive methylation technique adapted from Rayment, et al (21). […] This reaction was incubated for 2 hours at 4° C. Fresh aliquots of borane dimethylamine and formaldehyde were added and the reaction was again incubated at 4° C. for two hours. A final aliquot of borane dimethylamine was added and the reaction was incubated at 4° C. for ˜16 hours. The reaction was quenched with 80 mM Tris-Cl, pH 7.5. Peptides were incubated with POROS R220 micron beads (Applied Biosystems), collected with a C18 ZipTip™ (Millipore) and spotted for MALDI analysis in 2,5-dihydroxybenzoic acid. Mass spectra of peptides were collected with a MALDI-prOTOF mass spectrometer (PerkinElmerSciex) (61, 62). Spectra were viewed and peak areas extracted using MoverZ™ software (Genomic Solutions). Reaction products were verified by MS^2 with a Thermo LTQ XL mass spectrometer coupled to a NanoLC-2D™ liquid chromatography system (Eksigent).
Demethylase Assay. […] The reaction proceeded for 2 hr at 37° C. Reaction products were collected with POROS R2 20 micron beads for 15 minutes at room temperature, loaded into a C18 ZipTip, eluted in 40 μL 70% acetonitrile/0.1% TFA, lyophilized, and subjected to MassSQUIRM as described above.
LSD1 Inhibition Assay. […]

`NNCCc1ccccc1` [phenylethylhydrazine] was tested, and the inhibition at 16700 µM was 96%.
